Measured values: PubChem BioAssay (NCI)
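1) Cells in 96-well plates. 2) Compound, 48 h, 5 concentrations. 3) Linear interpolation between surrounding doses. 4) Unreached endpoint = highest concentration. TGI: concentration producing complete growth inhibition.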

Columns and labels:
Experiment in all cases: DTP human tumour cell line panel, 48 h
CAKI-1 renal = system: CAKI-1 renal
ACHN renal = system: ACHN renal
IGROV1 ovarian = system: IGROV1 ovarian
OVCAR-8 ovarian = system: OVCAR-8 ovarian
SF-268 CNS = system: SF-268 CNS
HCC-2998 colon = system: HCC-2998 colon
HOP-62 NSCLC = system: HOP-62 NSCLC
SF-539 CNS = system: SF-539 CNS
A498 renal = system: A498 renal
HL-60(TB) leukemia = system: HL-60(TB) leukemia
U251 CNS = system: U251 CNS
T-47D breast = system: T-47D breast
786-0 renal = system: 786-0 renal
NCI-H460 lung = system: NCI-H460 lung
OVCAR-4 ovarian = system: OVCAR-4 ovarian
NCI-H522 lung = system: NCI-H522 lung
SN12C renal = system: SN12C renal
UACC-62 melanoma = system: UACC-62 melanoma
SK-MEL-5 melanoma = system: SK-MEL-5 melanoma
OVCAR-5 ovarian = system: OVCAR-5 ovarian
UO-31 renal = system: UO-31 renal
MALME-3M melanoma = system: MALME-3M melanoma
SF-295 CNS = system: SF-295 CNS
M14 melanoma = system: M14 melanoma
HOP-92 NSCLC = system: HOP-92 NSCLC
EKVX NSCLC = system: EKVX NSCLC
MDA-MB-435 = system: MDA-MB-435
SK-OV-3 ovarian = system: SK-OV-3 ovarian
CCRF-CEM leukemia = system: CCRF-CEM leukemia
SR leukemia = system: SR leukemia
DU-145 prostate = system: DU-145 prostate
PC-3 prostate = system: PC-3 prostate
A549 NSCLC = system: A549 NSCLC
RPMI-8226 leukemia = system: RPMI-8226 leukemia
KM12 colon = system: KM12 colon
UACC-257 melanoma = system: UACC-257 melanoma
MCF7 breast = system: MCF7 breast
HT29 colon = system: HT29 colon
NCI/ADR-RES ovarian = system: NCI/ADR-RES ovarian
BT-549 breast = system: BT-549 breast
NCI-H23 lung = system: NCI-H23 lung
SNB-19 CNS = system: SNB-19 CNS
NCI-H226 lung = system: NCI-H226 lung
OVCAR-3 ovarian = system: OVCAR-3 ovarian
MDA-MB-231 breast = system: MDA-MB-231 breast
COLO 205 colon = system: COLO 205 colon
MOLT-4 leukemia = system: MOLT-4 leukemia
RXF 393 renal = system: RXF 393 renal
SK-MEL-28 melanoma = system: SK-MEL-28 melanoma
TK-10 renal = system: TK-10 renal
HS 578T breast = system: HS 578T breast
SK-MEL-2 melanoma = system: SK-MEL-2 melanoma
SW-620 colon = system: SW-620 colon
LOX IMVI melanoma = system: LOX IMVI melanoma
HCT-15 colon = system: HCT-15 colon
HCT-116 colon = system: HCT-116 colon

`COc1c(O)cc2c(c1O)C(=O)C1=C(CCCC1)C2=O` showed a TGI (CAKI-1 renal) of 71 µM, a TGI (ACHN renal) of 58.4 µM and a TGI (IGROV1 ovarian) of 43.8 µM. For the same compound, the TGI (OVCAR-8 ovarian) was 57.5 µM, the TGI (SF-268 CNS) was > 100 µM and the TGI (HCC-2998 colon) was 47.7 µM. The TGI (HOP-62 NSCLC) was > 100 µM, the TGI (SF-539 CNS) was 44 µM and the TGI (A498 renal) was 47.7 µM. The TGI (HL-60(TB) leukemia) was 31.9 µM, the TGI (U251 CNS) was > 100 µM and the TGI (T-47D breast) was 50.2 µM. For the same compound, the TGI (786-0 renal) was 49.4 µM, the TGI (NCI-H460 lung) was 73.4 µM and the TGI (OVCAR-4 ovarian) was 95.6 µM. The TGI (NCI-H522 lung) was 31.8 µM, the TGI (SN12C renal) was 58.3 µM and the TGI (UACC-62 melanoma) was 48.8 µM. For the same compound, the TGI (SK-MEL-5 melanoma) was 66 µM, the TGI (OVCAR-5 ovarian) was > 100 µM and the TGI (UO-31 renal) was 43.8 µM. The TGI (MALME-3M melanoma) was 69.3 µM, the TGI (SF-295 CNS) was 65.2 µM and the TGI (M14 melanoma) was > 100 µM. For the same compound, the TGI (HOP-92 NSCLC) was 82.7 µM, the TGI (EKVX NSCLC) was 86.6 µM and the TGI (MDA-MB-435) was > 100 µM. The TGI (SK-OV-3 ovarian) was 48.8 µM, the TGI (CCRF-CEM leukemia) was 10.9 µM and the TGI (SR leukemia) was 34.2 µM. It also gave a TGI (DU-145 prostate) of 74.3 µM, a TGI (PC-3 prostate) of 84.5 µM and a TGI (A549 NSCLC) of 87.3 µM. It also gave a TGI (RPMI-8226 leukemia) of 32.6 µM, a TGI (KM12 colon) of 65.5 µM and a TGI (UACC-257 melanoma) of 81.2 µM. For the same compound, the TGI (MCF7 breast) was 80.7 µM, the TGI (HT29 colon) was 40 µM and the TGI (NCI/ADR-RES ovarian) was 51.5 µM. For the same compound, the TGI (BT-549 breast) was > 100 µM, the TGI (NCI-H23 lung) was 41.3 µM and the TGI (SNB-19 CNS) was 96.9 µM. The TGI (NCI-H226 lung) was > 100 µM, the TGI (OVCAR-3 ovarian) was > 100 µM and the TGI (MDA-MB-231 breast) was 64.1 µM. It also gave a TGI (COLO 205 colon) of 40.1 µM, a TGI (MOLT-4 leukemia) of 23 µM and a TGI (RXF 393 renal) of 45 µM. The TGI (SK-MEL-28 melanoma) was 62 µM, the TGI (TK-10 renal) was 74.7 µM and the TGI (HS 578T breast) was 97.1 µM. The TGI (SK-MEL-2 melanoma) was > 100 µM, the TGI (SW-620 colon) was > 100 µM and the TGI (LOX IMVI melanoma) was 33.6 µM. For the same compound, the TGI (HCT-15 colon) was > 100 µM and the TGI (HCT-116 colon) was 43.2 µM.
